Source: patent publication US20100087649A1, “QUINOLINONE DERIVATIVES” (priority 2006, published 2010)

Tests used:
[1] = system: wild-type HIV-IIIB strain; test: Antiviral analysis EGFP: anti-HIV activity in MT4 LTR-EGFP cells; assay type: cell-based, HIV-1; conditions: fluorescence of HIV-infected cells reduced by 50%, three days after infection
Protocol: The compounds of the present invention were tested for anti-viral activity in a cellular assay, which was performed according to the following procedure.
The human T-cell line MT4 is engineered with Green Fluorescent Protein (GFP) and an HIV-specific promoter, HIV-1 long terminal repeat (LTR). This cell line is designated MT4 LTR-EGFP, and can be used for the in vitro evaluation of anti-HIV activity of investigational compounds. In HIV-1 infected cells, the Tat protein is produced which upregulates the LTR promotor and finally leads to stimulation of the GFP reporter production, allowing measuring ongoing HIV-infection fluorometrically.
(§1) Effective concentration values such as 50% effective concentration (EC50) can be determined and are usually expressed in μM. An EC50 value is defined as the concentration of test compound that reduces the fluorescence of HIV-infected cells by 50%. The 50% cytotoxic concentration (CC50 in μM) is defined as the concentration of test compound that reduces fluorescence of the mock-infected cells by 50%. The ratio of CC50 to EC50 is defined as the selectivity index (SI) and is an indication of the selectivity of the anti-HIV activity of the inhibitor. The ultimate monitoring of HIV-1 infection and cytotoxicity is done using a scanning microscope. Image analysis allows very sensitive detection of viral infection. Measurements are done before cell necrosis, which usually takes place about five days after infection, in particular measurements are performed three days after infection.
The following Table 5 lists EC50 values, expressed in micromole/liter, against wild-type HIV-IIIB strain, for a selected number of compounds of the invention.

[2] = Cytotoxicity in mock-infected MT4 CMV-EGFP cells; assay type: cell-based, human; conditions: human, fluorescence reduced by 50%
Description: (§2) Analogously, MT4 cells are engineered with GFP and the constitutional cytomegalovirus (CMV) promotor. This cell line is designated MT4 CMV-EGFP, and can be used for the in vitro evaluation of cytotoxicity of investigational compounds. In this cell line, GFP levels are comparably to those of infected MT4 LTR-EGFP cells. Cytotoxic investigational compounds reduce GFP levels of mock-infected MT4 CMV-EGFP cells.
as §1

[3] = system: MT4 CMV-EGFP cells; test: Cytotoxicity in mock-infected MT4 CMV-EGFP cells; assay type: cell-based, human; conditions: fluorescence reduced by 50%
Description: as §2, §1

[4] = Human immunodeficiency virus 1, 72 h

Row | Structure (SMILES) | EC50 [1, 4] [µM] | CC50 at 3 days [2] [µM] | EC50 [1] [µM] | CC50 [3] [µM]
1 | N#Cc1cc2ccc(N)cc2n(-c2ccc([N+](=O)[O-])cc2)c1=O [compound 24] | 1.48 | > 32 | – | –
2 | N#Cc1cc2ccc(-c3ccccc3)cc2n(-c2ccc([N+](=O)[O-])cc2)c1=O [compound 28] | 1.34 | > 32 | – | –
3 | Cc1ccc(-n2c(=O)c(C#N)cc3ccccc32)cc1C#N [compound 163] | 9.25 | > 100 | – | –
4 | Cc1ccc2c(N(C)C)c(C#N)c(=O)n(-c3ccc([N+](=O)[O-])cc3)c2n1 [compound 127] | 22.4 | > 32 | – | –
5 | COc1ccc2cc(C#N)c(=O)n(-c3ccc([N+](=O)[O-])cc3)c2c1 [compound 9] | 2.48 | > 32 | – | –
6 | N#Cc1cc2ccc(OP(=O)(O)O)cc2n(-c2ccc([N+](=O)[O-])cc2)c1=O [compound 70] | 17.5 | > 32 | – | –
7 | N#Cc1c(N)c2ccc(-c3cccs3)cc2n(-c2ccc([N+](=O)[O-])cc2)c1=O [compound 119] | 0.52 | > 100 | – | –
8 | N#Cc1c(N)c2ccc(Cl)cc2n(-c2ccc(Cl)nc2)c1=O [compound 103] | 3.61 | 85.2 | – | –
9 | COc1ccc2cc(C#N)c(=O)n(-c3ccc(C)c(C#N)c3)c2c1 [compound 146] | 4.67 | > 100 | – | –
10 | N#Cc1cc2ccc(=O)[nH]c2n(-c2ccc([N+](=O)[O-])cc2)c1=O [compound 100] | > 32 | > 32 | – | –
11 | N#Cc1cc2ccc(-n3cccc3)cc2n(-c2ccc([N+](=O)[O-])cc2)c1=O [compound 25] | 0.95 | 97.2 | – | –
12 | Cc1ccc(-n2c(=O)c(C#N)cc3ccc(-c4ccccn4)cc32)cc1C#N [compound 159] | 1.74 | 86 | – | –
13 | COc1cc2cc(C#N)c(=O)n(-c3ccc([N+](=O)[O-])cc3)c2cc1OC [compound 93] | 7.01 | > 32 | – | –
14 | COc1ccc2c(N)c(C#N)c(=O)n(-c3ccc(C)c(C#N)c3)c2c1 [compound 145] | 3.01 | > 100 | – | –
15 | Cn1c(=O)oc2cc(-n3c(=O)c(C#N)cc4ccccc43)ccc21 [compound 8] | 12.5 | > 100 | – | –
16 | N#Cc1c(N)c2ccccc2n(-c2ccc([N+](=O)[O-])cc2)c1=O [compound 101] | > 32 | > 32 | – | –
17 | CC(=O)Nc1cccc(-c2ccc3cc(C#N)c(=O)n(-c4ccc([N+](=O)[O-])cc4)c3c2)c1 [compound 39] | – | – | 51.3 | > 100
18 | CC(=O)NCc1cccc(-c2ccc3cc(C#N)c(=O)n(-c4ccc([N+](=O)[O-])cc4)c3c2)c1 [compound 43] | – | – | 0.93 | > 100
19 | N#Cc1c(NCCN)c2ccccc2n(-c2ccc([N+](=O)[O-])cc2)c1=O [compound 133] | – | – | 0.23 | 20.1

Row | Structure (SMILES) | EC50 [1, 4] [µM] | CC50 at 3 days [2] [µM] | EC50 [1] [µM] | CC50 [3] [µM]
20 | N#Cc1cc2ccc(OCCN3CCNCC3)cc2n(-c2ccc([N+](=O)[O-])cc2)c1=O [compound 61] | – | – | 3.65 | > 32
21 | N#Cc1c(NCCc2c[nH]cn2)c2ccccc2n(-c2ccc([N+](=O)[O-])cc2)c1=O [compound 144] | – | – | 3.84 | > 100
22 | N#Cc1cc2cc(OC[C@@H]3CCCN3)ccc2n(-c2ccc([N+](=O)[O-])cc2)c1=O [compound 88] | – | – | 1.41 | 6.54
23 | Cc1ccc(-n2c(=O)c(C#N)cc3ccc(Cl)cc32)cc1C#N [compound 161] | – | – | 6.1 | > 100
24 | N#Cc1c(NCCO)c2ccccc2n(-c2ccc([N+](=O)[O-])cc2)c1=O [compound 134] | – | – | 13.5 | 54.6
25 | Cc1ccc(-n2c(=O)c(C#N)c(N)c3ccc(Cl)cc32)cc1C#N [compound 162] | – | – | 0.87 | > 100
26 | N#Cc1cc2cc(OCCCN)ccc2n(-c2ccc([N+](=O)[O-])cc2)c1=O [compound 84] | – | – | 3.64 | 15.5
27 | Cc1ccc(-n2c(=O)c(C#N)c(N)c3ccc(-c4ccsc4)cc32)cc1C#N [compound 125] | – | – | 4.11 | > 100
28 | Cc1ccc(-n2c(=O)c(C#N)cc3ccc(-c4cccn4C)cc32)cc1C#N [compound 154] | – | – | 10 | > 100
29 | N#Cc1cc2ccc(-c3nccs3)cc2n(-c2ccc([N+](=O)[O-])cc2)c1=O [compound 80] | – | – | 0.13 | 5.02
30 | N#Cc1cc2ccc(-c3cccc(CO)c3)cc2n(-c2ccc([N+](=O)[O-])cc2)c1=O [compound 38] | – | – | 0.61 | 18.6
31 | CN(C)C(=O)c1ccc(-c2ccc3cc(C#N)c(=O)n(-c4ccc([N+](=O)[O-])cc4)c3c2)cc1 [compound 40] | – | – | 0.95 | > 100
32 | N#Cc1cc2ccc(-c3ccc[nH]3)cc2n(-c2ccc([N+](=O)[O-])cc2)c1=O [compound 34] | – | – | 0.25 | 32.3
33 | N#Cc1cc2ccc(-c3cncs3)cc2n(-c2ccc([N+](=O)[O-])cc2)c1=O [compound 77] | – | – | 0.34 | 25.8
34 | N#Cc1c(N)c2ccc(Cl)cc2n(-c2ccc([N+](=O)[O-])cc2)c1=O [compound 102] | – | – | 0.85 | > 32
35 | CS(=O)(=O)NCc1cccc(-c2ccc3cc(C#N)c(=O)n(-c4ccc([N+](=O)[O-])cc4)c3c2)c1 [compound 50] | – | – | 3 | 11.8
36 | Cc1ccc(-n2c(=O)c(C#N)cc3ccc(-c4cc[nH]n4)cc32)cc1C#N [compound 153] | – | – | 0.53 | > 100
37 | N#Cc1c(NCCCN2CCCC2)c2ccccc2n(-c2ccc([N+](=O)[O-])cc2)c1=O [compound 132] | – | – | 2.04 | 15.3
38 | N#Cc1c(N)c2ccc(C(F)(F)F)cc2n(-c2ccc([N+](=O)[O-])cc2)c1=O [compound 114] | – | – | 3.94 | > 100

Row | Structure (SMILES) | EC50 [1, 4] [µM] | CC50 at 3 days [2] [µM] | EC50 [1] [µM] | CC50 [3] [µM]
39 | CNc1c(C#N)c(=O)n(-c2ccc(C)c(C#N)c2)c2ccccc12 [compound 165] | – | – | 7.94 | > 100
40 | N#Cc1ccc2cc(C#N)c(=O)n(-c3ccc([N+](=O)[O-])cc3)c2c1 [compound 96] | – | – | 13.5 | > 100
41 | N#Cc1c(N)c2cc(Cl)ccc2n(-c2ccc([N+](=O)[O-])cc2)c1=O [compound 107] | – | – | > 100 | > 100
42 | CNCCNc1c(C#N)c(=O)n(-c2ccc([N+](=O)[O-])cc2)c2ccccc12 [compound 135] | – | – | 3.37 | 53.2
43 | Cc1ccc(-n2c(=O)c(C#N)c(N)c3ccc(-c4cccs4)cc32)cc1C#N [compound 126] | – | – | 5.7 | > 100
44 | N#Cc1cc2ccc(-c3cccc(C(N)=O)c3)cc2n(-c2ccc([N+](=O)[O-])cc2)c1=O [compound 42] | – | – | 2.85 | > 100
45 | Cc1ccc2cc(C#N)c(=O)n(-c3ccc([N+](=O)[O-])cc3)c2c1 [compound 95] | – | – | > 100 | > 100
46 | N#Cc1cc2ccc(-c3cccc(N)c3)cc2n(-c2ccc([N+](=O)[O-])cc2)c1=O [compound 37] | – | – | 0.42 | > 100
47 | CN(C)CCNc1c(C#N)c(=O)n(-c2ccc([N+](=O)[O-])cc2)c2ccccc12 [compound 142] | – | – | 3.28 | 54.7
48 | Cc1ccc(-n2c(=O)c(C#N)c(N)c3ccccc32)cc1C#N [compound 166] | – | – | 3.01 | > 100
49 | CN(C)CCOc1ccc2cc(C#N)c(=O)n(-c3ccc([N+](=O)[O-])cc3)c2c1 [compound 62] | – | – | 4.29 | > 32
50 | CN(C)CCCNc1ccc2cc(C#N)c(=O)n(-c3ccc([N+](=O)[O-])cc3)c2c1 [compound 20] | – | – | 0.3 | 49
51 | N#Cc1cc2ccc(NCCN)cc2n(-c2ccc([N+](=O)[O-])cc2)c1=O [compound 16] | – | – | 1.55 | > 32
52 | N#Cc1c(N)c2ccc(Cl)cc2n(-c2ccc3nonc3c2)c1=O [compound 113] | – | – | 2.73 | > 100
53 | N#Cc1cc2ccc(OCCCN3CCCC3)cc2n(-c2ccc([N+](=O)[O-])cc2)c1=O [compound 73] | – | – | 0.42 | 36.4
54 | N#Cc1cc2ccc(OCCCN)cc2n(-c2ccc([N+](=O)[O-])cc2)c1=O [compound 57] | – | – | 1.06 | 49.6
55 | N#Cc1cc2ccc(-c3cccc(O)c3)cc2n(-c2ccc([N+](=O)[O-])cc2)c1=O [compound 32] | – | – | 0.65 | > 100
56 | CC(=O)Nc1cccc(-c2ccc3cc(C#N)c(=O)n(-c4ccc(C)c(C#N)c4)c3c2)c1 [compound 155] | – | – | 11 | > 100
57 | N#Cc1cc2cc(OC[C@H]3CCCN3)ccc2n(-c2ccc([N+](=O)[O-])cc2)c1=O [compound 87] | – | – | 1.19 | > 32
